From US8063221B2, “Aminoquinolones as GSK-3 inhibitors” (Kyorin Pharmaceutical Co., Ltd., priority 2006, dated 2011)
≈ marks a conversion by molar mass, not a printed value. Read-outs that look alike come from different tables or passages of the source. Values belong to the molecule of their own block, whether it stands above or below them.

Assays:
E. coli, ATCC8739 = assay: Antibacterial activity (MIC), E. coli; format: cell-based; details: Escherichia coli, E. coli ATCC8739
Description: (§1) As used herein, a minimum inhibitory concentration (MIC) for bacterial growth assay is the lowest level of a compound needed to cause an inhibition to bacterial growth in culture medium. In certain embodiments, the antibacterial activity of compounds herein, measured as MIC.
(§2) In certain embodiments, GSK3 inhibitors provided herein are substantially free of antibacterial activity or having very low antibacterial activity. The antibacterial activity can be measured by methods known in the art by estimating a minimum inhibitory concentration (MIC) for test compounds. A MIC is the lowest level of a compound needed to cause an inhibition to bacterial growth in a culture medium. […] (Clinical and Laboratory Standards Institute. Methods for Dilution Antimicrobial Susceptibility Tests for Bacteria That Grow Aerobically; Approved Standard-Sixth Edition: CLSI document […]. CLSI, Wayne, Pa. (2003))
(§3) Antibacterial activity for E. coli, ATCC8739 andS. aureus Smith expressed as MIC (μM) is provided as follows: […]

S. aureus Smith = assay: Antibacterial activity (MIC), S. aureus; format: cell-based; details: Staphylococcus aureus
Description: as §1, §2, §3

[1] = target: T1, recombinant full-length human GSK3β (Homo sapiens, UniProt P49841); assay: Luciferase-coupled cell-free GSK3β kinase assay; format: biochemical
T1 construct: recombinant full-length human GSK3β (Upstate); purchased Upstate
Description: For compounds in Tables 1 and 2, IC50 (μM) for GSK3β enzyme in cell free assay is provided as follows:
Luciferase-Coupled Protein Kinase Assays
All coupled-luciferase assays are performed by using a brief incubation with firefly luciferase (Promega) after completion of the kinase assay. KinaseGlo Plus is used for reading kinase reactions with ATP>10 μM, KinaseGlo for ATP <10 μM. The assay volume in a 384-well plate for the kinase reaction is 30 microliters.
10-25 ng of recombinant full-length human GSK3β (Upstate) is incubated in the presence or absence of compound at varying concentrations for 1 hour at 30 degrees Celsius in 20 mM MOPS, pH 7.0, 10 mM magnesium acetate, 0.2 mM EDTA, 2 mM EGTA, 30 mM magnesium chloride, 62.5 μM phospho-glycogen synthase peptide-2, 5 μM ATP, 10 mM β-glycerol phosphate, 1 mM sodium orthovanadate and 1 mM dithiothreitol. Proceed to KinaseGlo luciferase reaction (see below).
Following the completion of the kinase reaction an equal volume of KinaseGlo or KinaseGlo Plus luciferase reagent (Promega) is added and the luminescence read using a luminescence plate reader within 5-10 minutes. Compound activity is expressed as % inhibition relative to maximal inhibition observed at the maximal dose and IC50 values then calculated using curve fitting software (GraphPad Prizm).

[2] = ATCC8739, Table 2, read-out: Antimicrobial MIC [μM] E. Coli
[3] = Table 2, S. aureus Smith, read-out: Antimicrobial MIC [μM] S. aureus
[4] = ATCC8739, Table 1, read-out: Antibacterial MIC (μM) E.Coli
[5] = Table 1, read-out: Antibacterial MIC (μM) S. aureus Smith

T1 sequence (P49841 whole entry): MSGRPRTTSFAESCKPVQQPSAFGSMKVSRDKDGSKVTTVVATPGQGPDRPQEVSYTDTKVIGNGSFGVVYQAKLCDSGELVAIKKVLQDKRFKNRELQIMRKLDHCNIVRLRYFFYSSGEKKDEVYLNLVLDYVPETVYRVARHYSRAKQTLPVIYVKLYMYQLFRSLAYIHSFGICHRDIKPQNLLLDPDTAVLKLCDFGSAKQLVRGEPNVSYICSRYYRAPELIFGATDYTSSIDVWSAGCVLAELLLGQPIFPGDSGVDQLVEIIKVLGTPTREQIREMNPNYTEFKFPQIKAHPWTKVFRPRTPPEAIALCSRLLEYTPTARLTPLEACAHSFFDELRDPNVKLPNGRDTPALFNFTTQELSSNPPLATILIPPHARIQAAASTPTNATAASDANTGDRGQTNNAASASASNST

Compound: COc1c(NCCCn2ccnc2)c(F)c(N)c2c(=O)ccn(C3CC3)c12 [compound 2]
MIC (E. coli, ATCC8739; [2]): > 50 µM
MIC (S. aureus Smith; [3]): > 50 µM
IC50 ([1]; Table 2): 100 to 500 nM

Compound: CC(C)OCCCNc1c(F)c(N)c2c(=O)c(C(=O)O)cn3c2c1OCC3C (centres unmarked) [compound 4]
MIC (E. coli, ATCC8739; [2]): > 50 µM
MIC (S. aureus Smith; [3]): 0.5 to 10 µM (≈ 0.197 to 3.93 µg/mL)
IC50 ([1]; Table 2): 100 to 500 nM

Compound: CC1COc2c(NCCCN3CCCC3=O)c(F)c(N)c3c(=O)c(C(=O)O)cn1c23 (centres unmarked) [compound 5]
MIC (E. coli, ATCC8739; [2]): > 50 µM
MIC (S. aureus Smith; [3]): 0.5 to 10 µM (≈ 0.209 to 4.18 µg/mL)
IC50 ([1]; Table 2): < 100 nM

Compound: CC(CCc1ccc(Cl)cc1)Nc1c(F)c(N)c2c(=O)c(C(=O)O)cn3c2c1OC[C@@H]3C (some centres unmarked) [compound 71]
IC50 ([1]; Table 2): < 100 nM

Compound: CC(COc1ccc(Cl)cc1)Nc1c(F)c(N)c2c(=O)c(C(=O)O)cn3c2c1OC[C@@H]3C (some centres unmarked) [compound 74]
IC50 ([1]; Table 2): 500 to 1000 nM

Compound: Cc1ccc(OCCNc2c(F)c(N)c3c(=O)c(C(=O)O)cn4c3c2OC[C@@H]4C)cc1 [compound 77]
IC50 ([1]; Table 2): 100 to 500 nM

Compound: CC(C)c1ccc(OCCNc2c(F)c(N)c3c(=O)c(C(=O)O)cn4c3c2OC[C@@H]4C)cc1 [compound 78]
IC50 ([1]; Table 2): 100 to 500 nM

Compound: COc1ccc(C(CCNc2c(F)c(N)c3c(=O)c(C(=O)O)cn4c3c2OC[C@@H]4C)c2ccc(F)cc2)cc1 (some centres unmarked) [compound 81]
IC50 ([1]; Table 2): < 100 nM

Compound: C[C@H]1COc2c(NCCOc3ccc(Cl)cc3)c(F)c(N)c3c(=O)c(C(=O)O)cn1c23 [compound 83]
IC50 ([1]; Table 2): < 100 nM

Compound: Cc1cc(OCCNc2c(F)c(N)c3c(=O)c(C(=O)O)cn4c3c2OC[C@@H]4C)ccc1Cl [compound 84]
IC50 ([1]; Table 2): < 100 nM

Compound: Cc1ccc(C(C)C)c(OCCNc2c(F)c(N)c3c(=O)c(C(=O)O)cn4c3c2OC[C@@H]4C)c1 [compound 85]
IC50 ([1]; Table 2): 100 to 500 nM

Compound: COc1ccc(OCC(C)Nc2c(F)c(N)c3c(=O)c(C(=O)O)cn4c3c2OC[C@@H]4C)cc1 (some centres unmarked) [compound 86]
IC50 ([1]; Table 2): 500 to 1000 nM

Compound: CC(CCc1ccccc1Cl)Nc1c(F)c(N)c2c(=O)c(C(=O)O)cn3c2c1OC[C@@H]3C (some centres unmarked) [compound 88]
IC50 ([1]; Table 2): 100 to 500 nM

Compound: CC1COc2c(NCCCn3ccnc3)c(F)c(N)c3c(=O)c(C(=O)O)cn1c23 (centres unmarked) [compound 89]
IC50 ([1]; Table 1): < 100 nM

Further lines, results first:

MIC (E. coli, ATCC8739; [2]): 0.5 to 10 µM (≈ 0.199 to 3.98 µg/mL)
MIC (S. aureus Smith; [3]): 0.5 to 10 µM (≈ 0.199 to 3.98 µg/mL)
IC50 ([1]; Table 2): 100 to 500 nM
Compound: CC1COc2c(NCCc3ccncc3)c(F)c(N)c3c(=O)c(C(=O)O)cn1c23 (centres unmarked) [compound 3]

MIC (E. coli, ATCC8739; [4]): 0.5 to 10 µM (≈ 0.2 to 4 µg/mL)
MIC (S. aureus Smith; [5]): < 0.5 µM
IC50 ([1]; Table 1): 100 to 500 nM
Compound: Nc1c(F)c(NCCc2ccncc2)c(F)c2c1c(=O)c(C(=O)O)cn2C1CC1 [compound 3]

MIC (E. coli, ATCC8739; [4]): 0.5 to 10 µM (≈ 0.209 to 4.17 µg/mL)
MIC (S. aureus Smith; [5]): < 0.5 µM
IC50 ([1]; Table 1): 100 to 500 nM
Compound: Nc1c(F)c(NCCc2ccc(F)cc2)c(F)c2c1c(=O)c(C(=O)O)cn2C1CC1 [compound 5]

MIC (E. coli, ATCC8739; [4]): 10 to 50 µM (≈ 4.13 to 20.7 µg/mL)
MIC (S. aureus Smith; [5]): 0.5 to 10 µM (≈ 0.207 to 4.13 µg/mL)
IC50 ([1]; Table 1): < 100 nM
Compound: Nc1c(F)c(NCCCc2ccccc2)c(F)c2c1c(=O)c(C(=O)O)cn2C1CC1 [compound 6]

MIC (E. coli, ATCC8739; [2]): 10 to 50 µM (≈ 4.11 to 20.6 µg/mL)
IC50 ([1]; Table 2): < 100 nM
Compound: C[C@H]1COc2c(NCCCc3ccccc3)c(F)c(N)c3c(=O)c(C(=O)O)cn1c23 [compound 29]

IC50 ([1]; Table 2): < 100 nM
Compound: COc1ccc(CCCNc2c(F)c(N)c3c(=O)c(C(=O)O)cn4c3c2OC[C@@H]4C)cc1 [compound 73]

IC50 ([1]; Table 2): < 100 nM
Compound: C[C@H]1COc2c(NCCCc3ccccc3Cl)c(F)c(N)c3c(=O)c(C(=O)O)cn1c23 [compound 75]

IC50 ([1]; Table 2): < 100 nM
Compound: C[C@H]1COc2c(NCCCc3nc4ccccc4[nH]3)c(F)c(N)c3c(=O)c(C(=O)O)cn1c23 [compound 82]

IC50 ([1]; Table 1): > 1000 nM
Compound: CNNC(=O)c1cn(C2CC2)c2c(F)c(NCCCc3ccccc3)c(F)c(N)c2c1=O [compound 86]

IC50 ([1]; Table 1): 100 to 500 nM
Compound: CC1COc2c(NCCCOc3ccccc3)c(F)c(N)c3c(=O)c(C(=O)O)cn1c23 (centres unmarked) [compound 88]

IC50 ([1]; Table 2): < 100 nM
Compound: COc1cccc(CCCNc2c(F)c(N)c3c(=O)c(C(=O)O)cn4c3c2OC[C@@H]4C)c1 [compound 89]

IC50 ([1]; Table 2): 500 to 1000 nM
Compound: CC1Cc2ccccc2N1C(=O)CCCNc1c(F)c(N)c2c(=O)c(C(=O)O)cn3c2c1OC[C@@H]3C (some centres unmarked) [compound 90]
